The CheMixHub ionic liquid set

Test: xn = mol fraction of the nth substance listed
Details: 100 kPa

CCCCCCCC[n+]1ccccc1.[Br-] + CC(C)[C@H](N)C(=O)O + O
Details	electrical conductivity [S/m]
288.15 K, x2 = 0.0008935, x1 = 0.007418	1.31
288.15 K, x2 = 0.0008938, x1 = 0.007086	1.29
288.15 K, x2 = 0.0008942, x1 = 0.006704	1.26
288.15 K, x2 = 0.0008945, x1 = 0.006295	1.23
288.15 K, x2 = 0.0008949, x1 = 0.005851	1.19
288.15 K, x2 = 0.0008954, x1 = 0.005368	1.14
288.15 K, x2 = 0.0008958, x1 = 0.004839	1.08
288.15 K, x2 = 0.0008964, x1 = 0.004257	1.01
288.15 K, x2 = 0.0008969, x1 = 0.003625	0.906
288.15 K, x2 = 0.0008976, x1 = 0.002914	0.777
288.15 K, x2 = 0.0008982, x1 = 0.002179	0.624
288.15 K, x2 = 0.0008986, x1 = 0.001732	0.519
288.15 K, x2 = 0.0008991, x1 = 0.001237	0.396
288.15 K, x2 = 0.0008995, x1 = 0.0007528	0.27
288.15 K, x2 = 0.001786, x1 = 0.006884	1.26
288.15 K, x2 = 0.001787, x1 = 0.006555	1.23
288.15 K, x2 = 0.001788, x1 = 0.005847	1.16
288.15 K, x2 = 0.001788, x1 = 0.006214	1.19
288.15 K, x2 = 0.001789, x1 = 0.005457	1.12
288.15 K, x2 = 0.00179, x1 = 0.005019	1.08
288.15 K, x2 = 0.001791, x1 = 0.004547	1.02
288.15 K, x2 = 0.001792, x1 = 0.00402	0.951
288.15 K, x2 = 0.001793, x1 = 0.003446	0.852
288.15 K, x2 = 0.001794, x1 = 0.002816	0.736
288.15 K, x2 = 0.001795, x1 = 0.002155	0.601
288.15 K, x2 = 0.001796, x1 = 0.001258	0.39
288.15 K, x2 = 0.001796, x1 = 0.001677	0.494
288.15 K, x2 = 0.001797, x1 = 0.000791	0.274
293.15 K, x2 = 0.0008935, x1 = 0.007404	1.5
293.15 K, x2 = 0.0008938, x1 = 0.007072	1.47
293.15 K, x2 = 0.0008942, x1 = 0.00669	1.43
293.15 K, x2 = 0.0008945, x1 = 0.006282	1.39
293.15 K, x2 = 0.0008949, x1 = 0.005839	1.34
293.15 K, x2 = 0.0008954, x1 = 0.005359	1.29
293.15 K, x2 = 0.0008958, x1 = 0.00483	1.23
293.15 K, x2 = 0.0008964, x1 = 0.004248	1.15
293.15 K, x2 = 0.0008969, x1 = 0.003618	1.03
293.15 K, x2 = 0.0008976, x1 = 0.002909	0.878
293.15 K, x2 = 0.0008982, x1 = 0.002176	0.703
293.15 K, x2 = 0.0008986, x1 = 0.00173	0.585
293.15 K, x2 = 0.0008991, x1 = 0.001235	0.446
293.15 K, x2 = 0.0008995, x1 = 0.0007528	0.302
293.15 K, x2 = 0.001786, x1 = 0.006871	1.44
293.15 K, x2 = 0.001787, x1 = 0.006543	1.4
293.15 K, x2 = 0.001788, x1 = 0.005835	1.32
293.15 K, x2 = 0.001788, x1 = 0.006203	1.36
293.15 K, x2 = 0.001789, x1 = 0.005446	1.28
293.15 K, x2 = 0.00179, x1 = 0.00501	1.23
293.15 K, x2 = 0.001791, x1 = 0.004538	1.16
293.15 K, x2 = 0.001792, x1 = 0.004013	1.08
293.15 K, x2 = 0.001793, x1 = 0.003439	0.962
293.15 K, x2 = 0.001794, x1 = 0.002811	0.835
293.15 K, x2 = 0.001795, x1 = 0.002152	0.681
293.15 K, x2 = 0.001796, x1 = 0.001254	0.441
293.15 K, x2 = 0.001796, x1 = 0.001673	0.556
293.15 K, x2 = 0.001797, x1 = 0.0007892	0.308
298.15 K, x2 = 0.0008935, x1 = 0.007393	1.7
298.15 K, x2 = 0.0008938, x1 = 0.007063	1.66
298.15 K, x2 = 0.0008942, x1 = 0.006681	1.62
298.15 K, x2 = 0.0008945, x1 = 0.006273	1.57
298.15 K, x2 = 0.0008949, x1 = 0.005831	1.52
298.15 K, x2 = 0.0008954, x1 = 0.005351	1.46
298.15 K, x2 = 0.0008959, x1 = 0.004824	1.38
298.15 K, x2 = 0.0008964, x1 = 0.004243	1.28
298.15 K, x2 = 0.0008969, x1 = 0.003614	1.15
298.15 K, x2 = 0.0008976, x1 = 0.002905	0.986
298.15 K, x2 = 0.0008982, x1 = 0.002174	0.784
298.15 K, x2 = 0.0008986, x1 = 0.001726	0.653
298.15 K, x2 = 0.0008991, x1 = 0.001234	0.498
298.15 K, x2 = 0.0008995, x1 = 0.000751	0.336
298.15 K, x2 = 0.001786, x1 = 0.006862	1.62
298.15 K, x2 = 0.001787, x1 = 0.006534	1.58
298.15 K, x2 = 0.001788, x1 = 0.005828	1.49
298.15 K, x2 = 0.001788, x1 = 0.006196	1.54
298.15 K, x2 = 0.001789, x1 = 0.005439	1.44
298.15 K, x2 = 0.00179, x1 = 0.005003	1.38
298.15 K, x2 = 0.001791, x1 = 0.004533	1.31
298.15 K, x2 = 0.001792, x1 = 0.004009	1.21
298.15 K, x2 = 0.001793, x1 = 0.003435	1.08
298.15 K, x2 = 0.001794, x1 = 0.002807	0.937
298.15 K, x2 = 0.001795, x1 = 0.002148	0.761
298.15 K, x2 = 0.001796, x1 = 0.001254	0.492
298.15 K, x2 = 0.001796, x1 = 0.001671	0.623
298.15 K, x2 = 0.001797, x1 = 0.0007892	0.342
303.15 K, x2 = 0.0008935, x1 = 0.007383	1.93
303.15 K, x2 = 0.0008938, x1 = 0.007052	1.88
303.15 K, x2 = 0.0008942, x1 = 0.006672	1.82
303.15 K, x2 = 0.0008946, x1 = 0.006264	1.77
303.15 K, x2 = 0.000895, x1 = 0.005822	1.7
303.15 K, x2 = 0.0008954, x1 = 0.005343	1.63
303.15 K, x2 = 0.0008959, x1 = 0.004817	1.54
303.15 K, x2 = 0.0008964, x1 = 0.004238	1.43
303.15 K, x2 = 0.0008969, x1 = 0.003609	1.28
303.15 K, x2 = 0.0008976, x1 = 0.002902	1.1
303.15 K, x2 = 0.0008982, x1 = 0.00217	0.864
303.15 K, x2 = 0.0008986, x1 = 0.001725	0.717
303.15 K, x2 = 0.0008991, x1 = 0.001232	0.553
303.15 K, x2 = 0.0008995, x1 = 0.000751	0.372
303.15 K, x2 = 0.001786, x1 = 0.006852	1.81
303.15 K, x2 = 0.001787, x1 = 0.006525	1.77
303.15 K, x2 = 0.001788, x1 = 0.00582	1.67
303.15 K, x2 = 0.001788, x1 = 0.006185	1.72
303.15 K, x2 = 0.001789, x1 = 0.005432	1.61
303.15 K, x2 = 0.00179, x1 = 0.004996	1.54
303.15 K, x2 = 0.001791, x1 = 0.004527	1.46
303.15 K, x2 = 0.001792, x1 = 0.004004	1.35
303.15 K, x2 = 0.001793, x1 = 0.003429	1.21
303.15 K, x2 = 0.001794, x1 = 0.002804	1.04
303.15 K, x2 = 0.001795, x1 = 0.002146	0.845
303.15 K, x2 = 0.001796, x1 = 0.00167	0.691
303.15 K, x2 = 0.001797, x1 = 0.0007874	0.379
303.15 K, x2 = 0.001797, x1 = 0.001252	0.546
308.15 K, x2 = 0.0008936, x1 = 0.00737	2.19
308.15 K, x2 = 0.0008938, x1 = 0.00704	2.13
308.15 K, x2 = 0.0008942, x1 = 0.006659	2.06
308.15 K, x2 = 0.0008946, x1 = 0.006254	1.99
308.15 K, x2 = 0.000895, x1 = 0.005812	1.92
308.15 K, x2 = 0.0008954, x1 = 0.005334	1.81
308.15 K, x2 = 0.0008959, x1 = 0.004808	1.71
308.15 K, x2 = 0.0008964, x1 = 0.00423	1.57
308.15 K, x2 = 0.0008969, x1 = 0.003602	1.42
308.15 K, x2 = 0.0008976, x1 = 0.002896	1.19
308.15 K, x2 = 0.0008982, x1 = 0.002167	0.943
308.15 K, x2 = 0.0008986, x1 = 0.001721	0.784
308.15 K, x2 = 0.0008991, x1 = 0.00123	0.608
308.15 K, x2 = 0.0008995, x1 = 0.0007492	0.414
308.15 K, x2 = 0.001786, x1 = 0.006839	2.07
308.15 K, x2 = 0.001787, x1 = 0.006512	2.02
308.15 K, x2 = 0.001788, x1 = 0.00581	1.87
308.15 K, x2 = 0.001788, x1 = 0.006175	1.95
308.15 K, x2 = 0.001789, x1 = 0.005421	1.79
308.15 K, x2 = 0.00179, x1 = 0.004987	1.71
308.15 K, x2 = 0.001791, x1 = 0.004518	1.62
308.15 K, x2 = 0.001792, x1 = 0.003997	1.48
308.15 K, x2 = 0.001793, x1 = 0.003424	1.34
308.15 K, x2 = 0.001794, x1 = 0.002798	1.14
308.15 K, x2 = 0.001795, x1 = 0.002143	0.914
308.15 K, x2 = 0.001796, x1 = 0.001666	0.743
308.15 K, x2 = 0.001797, x1 = 0.0007874	0.427
308.15 K, x2 = 0.001797, x1 = 0.001249	0.603
